The values below come from ChEMBL document CHEMBL1138824, “Design and synthesis of hydroxyethylene-based peptidomimetic inhibitors of human beta-secretase” (J Med Chem, 2004).

SMILES strings stand for the structures. Residues, ends and D or L forms follow the SMILES beside them.

The IC50 is the point on the concentration scale where inhibition reaches its midpoint. A lower IC50 goes with higher potency. The term EC50 denotes the concentration that produces a half-maximal response. Read a high EC50 as lower potency in that assay.

One experiment has as its target Beta-secretase (BACE) (Homo sapiens, UniProt Q9Y5Z0+P56817). The experiment in a line: Inhibition of human beta secretase in MBP-C125 assay. The class given is protein assay.
The next experiment deals with HEK293. The experiment in a line: Effective concentration evaluated in HEK293 cells. The class given is functional, cell-based. Particulars: Homo sapiens.

Take `CCCN(CCC)C(=O)c1cccc(C(=O)N[C@@H](Cc2cc(F)cc(F)c2)[C@@H](O)C[C@@H](CC)C(=O)NCCCCCCCC(=O)O)c1`: the IC50 against Beta-secretase (BACE) worked out at 200 nM.

In the case of `CCCN(CCC)C(=O)c1cccc(C(=O)N[C@@H](Cc2cc(F)cc(F)c2)[C@@H](O)C[C@@H](CC)C(=O)NCCCCCC(=O)O)c1`, the IC50 on Beta-secretase (BACE) is recorded as 240 nM.

Regarding `CCCN(CCC)C(=O)c1cccc(C(=O)N[C@@H](Cc2cc(F)cc(F)c2)[C@@H](O)C[C@@H](CC)C(=O)NCCCCCCCC(=O)OC)c1`, the IC50 on Beta-secretase (BACE) turned out to be 410 nM.

In turn, `CCCN(CCC)C(=O)c1cccc(C(=O)N[C@@H](Cc2cc(F)cc(F)c2)[C@@H](O)C[C@@H](CC)C(=O)NCCCCC(=O)O)c1` yielded an IC50 against Beta-secretase (BACE) of 400 nM.

In turn, `CCCN(CCC)C(=O)c1cccc(C(=O)N[C@@H](Cc2cc(F)cc(F)c2)[C@@H](O)C[C@@H](Cc2ccccc2)C(=O)NC[C@H]2CC[C@H](C(=O)O)CC2)c1` registered an IC50 on Beta-secretase (BACE) of 27000 nM.

Regarding `CC(C)C[C@H](NC(=O)C(O)c1cccc2ccccc12)[C@@H](O)C[C@H](C(=O)N[C@@H](C)C(=O)N[C@@H](CCC(=O)O)C(=O)N[C@@H](Cc1ccccc1)C(=O)O)C(C)C` (some centres undefined), the half-maximal inhibitory concentration (IC50) against Beta-secretase (BACE) came out at 7500 nM.

`CCCN(CCC)C(=O)c1cccc(C(=O)N[C@@H](Cc2cc(F)cc(F)c2)[C@@H](O)CC(=O)N[C@H](C(=O)N[C@H]2C[C@@H](C(=O)O)C[C@@H](C(=O)O)C2)C(C)C)c1` returned an IC50 on Beta-secretase (BACE) of 1 nM. In addition, in the experiment on HEK293, it took 1000 nM to reach a half-maximal effect (EC50).

For the compound `CCCN(CCC)C(=O)c1cccc(C(=O)N[C@@H](Cc2cc(F)cc(F)c2)[C@@H](O)C[C@@H](CC)C(=O)N[C@H]2C[C@@H](OC)C[C@@H](OC)C2)c1`, the IC50 at Beta-secretase (BACE) amounted to 6600 nM.

`CSCC[C@H](NC(=O)[C@@H](NC(C)=O)C(C)C)C(=O)N[C@@H](CC(C)C)[C@@H](O)C[C@H](C(=O)N[C@@H](C)C(=O)N[C@@H](CCC(=O)O)C(=O)N[C@@H](Cc1ccccc1)C(=O)O)C(C)C` (HELM PEPTIDE1{[ac].V.M.[CC(C)C[C@H](N[*:1])[C@@H](O)C[C@H](C(=O)[*:2])C(C)C].A.E.F}$$$$V2.0) registered an IC50 at Beta-secretase (BACE) of 30 nM.

On to `CCCN(CCC)C(=O)c1cccc(C(=O)N[C@@H](Cc2cc(F)cc(F)c2)[C@@H](O)C[C@@H](CC)C(=O)NCCC(=O)O)c1`, for which the IC50 on Beta-secretase (BACE) is listed as 2800 nM.

In turn, `CCCN(CCC)C(=O)c1cccc(C(=O)N[C@@H](Cc2cc(F)cc(F)c2)[C@@H](O)C[C@@H](C)C(=O)NCC(C)C)c1` gave an IC50 against Beta-secretase (BACE) of 30 nM. Further, the EC50 in the experiment with HEK293 was found to be 3000 nM.

As to `CCCN(CCC)C(=O)c1cccc(C(=O)N[C@@H](Cc2cc(F)cc(F)c2)[C@@H](O)C[C@@H](CC)C(=O)NCc2ccccc2)c1`, the IC50 against Beta-secretase (BACE) amounted to 1400 nM.

In the case of `CC(C)[C@H](NC(=O)C[C@H](O)[C@H](Cc1cc(F)cc(F)c1)NC(=O)C(O)c1ccccc1-c1ccccc1)C(=O)N[C@H]1C[C@@H](C(=O)O)C[C@@H](C(=O)O)C1` (some centres undefined), the IC50 on Beta-secretase (BACE) is recorded as 20 nM. Further, in the experiment with HEK293, the 50% effective concentration (EC50) is above 10000 nM.

`CC(C)C[C@H](NC(=O)C(O)c1cccc2ccccc12)[C@@H](O)CC(=O)N[C@H](C(=O)N[C@@H](C)C(=O)N[C@@H](CCC(=O)O)C(=O)N[C@@H](Cc1ccccc1)C(=O)O)C(C)C` (some centres undefined) (HELM PEPTIDE1{[O=C(C(O)c1cccc2ccccc12)[*:2]].[CC(C)C[C@H](N[*:1])[C@@H](O)CC(=O)[*:2]].V.A.E.F}$$$$V2.0) returned an IC50 on Beta-secretase (BACE) of 4000 nM.

`CSCC[C@H](NC(=O)[C@@H](NC(=O)OC(C)(C)C)C(C)C)C(=O)N[C@@H](CC(C)C)[C@@H](O)C[C@@H](C)C(=O)N[C@H](C(=O)NCc1ccccc1)C(C)C` had an IC50 at Beta-secretase (BACE) of 3 nM.

At Beta-secretase (BACE), `CCCN(CCC)C(=O)c1cccc(C(=O)N[C@@H](Cc2cc(F)cc(F)c2)[C@@H](O)C[C@@H](CC(C)C)C(=O)NC[C@H]2CC[C@H](C(=O)O)CC2)c1` displayed an IC50 of 310 nM.

On to `CCCN(CCC)C(=O)c1cccc(C(=O)N[C@@H](Cc2cc(F)cc(F)c2)[C@@H](O)C[C@@H](CC)C(=O)NCCCC(=O)O)c1`, for which the IC50 against Beta-secretase (BACE) is reported as 310 nM.

The compound `CCCN(CCC)C(=O)c1cccc(C(=O)N[C@@H](Cc2cc(F)cc(F)c2)[C@@H](O)C[C@@H](CC)C(=O)NC[C@H]2CC[C@H](C(=O)O)CC2)c1` had an IC50 on Beta-secretase (BACE) of 50 nM.

Regarding `CCCN(CCC)C(=O)c1cccc(C(=O)N[C@@H](Cc2cc(F)cc(F)c2)[C@@H](O)CCC(=O)NC[C@H]2CC[C@H](C(=O)O)CC2)c1`, at Beta-secretase (BACE), the IC50 is on record as 400 nM.

`CCCN(CCC)C(=O)c1cccc(C(=O)N[C@@H](Cc2cc(F)cc(F)c2)[C@@H](O)C[C@@H](C)C(=O)NC[C@H]2CC[C@H](C(=O)O)CC2)c1` had an IC50 at Beta-secretase (BACE) of 26 nM.

`CCC[C@H](C[C@H](O)[C@H](Cc1cc(F)cc(F)c1)NC(=O)c1cccc(C(=O)N(CCC)CCC)c1)C(=O)NC[C@H]1CC[C@H](C(=O)O)CC1` showed an IC50 against Beta-secretase (BACE) of 45 nM.
